# Values quoted from earlier work in patent US20100317522A1, “Adjuvants for Agrochemical Applications” (COGNIS IP […], priority 2007, published 2010).
# Settings: rat, oral (WHO)
smiles,measurement,value
"O=C(O)CNCP(=O)(O)O [Glyphosate, N-(phosphonomethyl)glycine]",LD50,4320 mg/kg
